In US7045343B2, “Sterilization indicator test packs” (3M Innovative Properties Company, priority 1998, dated 2006):
Blank lines part the entries; values can stand above or below the compound they belong to.

Tests used:
[1] = tested on: Bacillus stearothermophilus spores; assay: Spore outgrowth (color change) of indicators after prevacuum steam sterilization; type: cell-based; conditions: Example 2, 4-pulse prevacuum steam 121° C., 7–13 min
Protocol: (§1) The indicators prepared for the Examples were dual rapid readout indicators that provided both a rapid, enzyme-based efficacy test and a confirmatory spore outgrowth test. Spores coated on the carrier strip 16 served as the source of active enzyme whose activity was measured by the rapid enzyme test. These same spores were then incubated in the spore outgrowth portion of the test.
(§2) Bacillus stearothermophilus, commercially available as ATCC 7953 from American Type Culture Collection, Rockville, Md., was grown overnight (16 hours) at 58° C. in tryptic soy broth. This culture was used to inoculate the surface of agar plates consisting of 8 g/l nutrient broth, 4 g/l yeast extract, 0.1 g/l manganese chloride and 20 g/l agar at pH 7.2. Plates were incubated at 58° C. for 72 hours. Spores were scraped from the plates and suspended in sterile distilled water. The spores were separated from the vegetative debris by centrifuging the suspension at 7000 rpm and 4° C. for 20 minutes. The supernatant was poured off and the spores were resuspended in sterile distilled water. The cleaning procedure was repeated several times. After the final wash, the spores were suspended in sterile distilled water, at a concentration of approximately 1×10^8 spores per milliliter.
(§3) The spores were then treated with the chemicals identified in Tables 1–5. All chemicals tested were obtained from commercial sources. The spores were centrifuged at 6000 rpm for 10 minutes. The supernatant and coating chemical mixtures were heated at 60–80° C. for several minutes and vortexed to get the material into solution. The spores were then mixed into the sterilant-resistant chemical solution. The sterilant-resistant chemical solution was applied to 5×25 mm, 591 A paper strips (Schleicher & Schuell, Inc., Keene, N.H.) by pipetting 10–15 microliters to each strip for a final population of about 1×10^6 spores per strip. The strips were dried 16 hours at 37° C.
(§4) The treated spore strips were placed on the bottom of the outer container 12 of the indicator 10 and a barrier was inserted between the spore strip 16 and the inner container 18, which contained enzyme substrate. A […] ( 11/16 inch) disc of polypropylene blown microfiber material, with a weight of 200 g/m^2, commercially available as “THINSULATE™ 200-B brand Thermal Insulation” from 3M Company, St. Paul, Minn., was used as the barrier. The inner container 18 contained 0.67 ml nutrient medium, consisting of 17 g of a bacteriological peptone and a 0.17 g/l of L-alanine, as well as 0.1 g 4-methylumbelliferyl-alpha-D-glucoside, commercially available from Sigma Chemical Company, St. Louis, Mo., dissolved in 200 microliters of N,N-dimethylformamide, and 0.03 g bromocresol purple pH indicator dye, per liter of water. The pH of the enzyme substrate and nutrient medium solution was adjusted to 7.6 with 0.1N sodium hydroxide.
(§5) Sterilization indicators were made as described above with each of the chemicals and concentrations described in Table 1. Control indicators were made using untreated spores. The indicators were placed in metal instrument trays and exposed at 121° C. in a Getinge Steam Sterilizer (Getinge International, Inc., 1100 Towbin Ave., Lakewood, N.J.) using a 4-pulse prevacuum cycle at 121° C. with a vacuum level of 0.075–0.085 bar and a steam pulse to 1.00 bar for each pulse. Indicators were exposed in the sterilizer for between 7 and 13 minutes. This cycle is depicted in the time-pressure diagram in FIG. 5. After exposure the inner containers containing the enzyme substrate and nutrient medium were crushed and the indicators were incubated at 60° C. The indicators were examined for fluorescence using a 3M™ ATTEST™ Model 190 Rapid Autoreader, commercially available from 3M Company, St. Paul, Minn. Additionally, spore growth, as indicated by a color change from purple to yellow, was determined visually after 168 hours of incubation at 60° C. […]

[2] = tested on: enzyme associated with Bacillus stearothermophilus spores; assay: Rapid enzyme fluorescence readout of dual rapid readout indicators after prevacuum steam sterilization; type: biochemical; conditions: 4-pulse prevacuum steam 121° C.; for FLUORESCENCE - PERCENT POSITIVE 1 HR / FLUORESCENCE - PERCENT POSITIVE 2 HR / FLUORESCENCE - PERCENT POSITIVE 3 HR / FLUORESCENCE - PERCENT POSITIVE 4 HR / FLUORESCENCE - PERCENT POSITIVE 5 HR / FLUORESCENCE - PERCENT POSITIVE 6 HR: Example 2, 7–13 min
Protocol: as §1, §2, §3, §4, §5

accuracy of sterilization indicators compared to indicators made with untreated spores [2]: did not improve the accuracy
FLUORESCENCE - PERCENT POSITIVE 1 HR ([2]; 5 mg/ml coating): 0%
FLUORESCENCE - PERCENT POSITIVE 2 HR ([2]; 5 mg/ml coating): 0%
FLUORESCENCE - PERCENT POSITIVE 3 HR ([2]; 5 mg/ml coating): 0%
FLUORESCENCE - PERCENT POSITIVE 4 HR ([2]; 5 mg/ml coating): 10.0%
FLUORESCENCE - PERCENT POSITIVE 5 HR ([2]; 5 mg/ml coating): 30.0%
FLUORESCENCE - PERCENT POSITIVE 6 HR ([2]; 5 mg/ml coating): 40.0%
FLUORESCENCE - PERCENT POSITIVE 1 HR ([2]; 10 mg/ml coating): 0%
FLUORESCENCE - PERCENT POSITIVE 2 HR ([2]; 10 mg/ml coating): 6.7%
FLUORESCENCE - PERCENT POSITIVE 3 HR ([2]; 10 mg/ml coating): 20.0%
FLUORESCENCE - PERCENT POSITIVE 4 HR ([2]; 10 mg/ml coating): 26.7%
FLUORESCENCE - PERCENT POSITIVE 5 HR ([2]; 10 mg/ml coating): 53.3%
FLUORESCENCE - PERCENT POSITIVE 6 HR ([2]; 10 mg/ml coating): 60.0%
FLUORESCENCE - PERCENT POSITIVE 1 HR ([2]; 20 mg/ml coating): 0%
FLUORESCENCE - PERCENT POSITIVE 2 HR ([2]; 20 mg/ml coating): 0%
FLUORESCENCE - PERCENT POSITIVE 3 HR ([2]; 20 mg/ml coating): 8.3%
FLUORESCENCE - PERCENT POSITIVE 4 HR ([2]; 20 mg/ml coating): 29.2%
FLUORESCENCE - PERCENT POSITIVE 5 HR ([2]; 20 mg/ml coating): 41.7%
FLUORESCENCE - PERCENT POSITIVE 6 HR ([2]; 20 mg/ml coating): 45.8%
FLUORESCENCE - PERCENT POSITIVE 1 HR ([2]; 40 mg/ml coating): 0%
FLUORESCENCE - PERCENT POSITIVE 2 HR ([2]; 40 mg/ml coating): 0%
FLUORESCENCE - PERCENT POSITIVE 3 HR ([2]; 40 mg/ml coating): 29.6%
FLUORESCENCE - PERCENT POSITIVE 4 HR ([2]; 40 mg/ml coating): 48.1%
FLUORESCENCE - PERCENT POSITIVE 5 HR ([2]; 40 mg/ml coating): 51.9%
FLUORESCENCE - PERCENT POSITIVE 6 HR ([2]; 40 mg/ml coating): 63.0%
FLUORESCENCE - PERCENT POSITIVE 1 HR ([2]; 80 mg/ml coating): 0%
FLUORESCENCE - PERCENT POSITIVE 2 HR ([2]; 80 mg/ml coating): 3.2%
FLUORESCENCE - PERCENT POSITIVE 3 HR ([2]; 80 mg/ml coating): 38.7%
FLUORESCENCE - PERCENT POSITIVE 4 HR ([2]; 80 mg/ml coating): 51.6%
FLUORESCENCE - PERCENT POSITIVE 5 HR ([2]; 80 mg/ml coating): 58.1%
FLUORESCENCE - PERCENT POSITIVE 6 HR ([2]; 80 mg/ml coating): 64.5%
SMILES: OCC(O)COCC(O)COCC(O)CO (stereo not drawn) [Triglycerol]
NO. GROWTH POSITIVE 168 HR ([1]; 5 mg/ml coating): 10
NO. GROWTH POSITIVE 168 HR ([1]; 10 mg/ml coating): 15
NO. GROWTH POSITIVE 168 HR ([1]; 20 mg/ml coating): 24
NO. GROWTH POSITIVE 168 HR ([1]; 40 mg/ml coating): 27
NO. GROWTH POSITIVE 168 HR ([1]; 80 mg/ml coating): 31

FLUORESCENCE - PERCENT POSITIVE 1 HR ([2]; 5 mg/ml coating): 0%
FLUORESCENCE - PERCENT POSITIVE 2 HR ([2]; 5 mg/ml coating): 0%
FLUORESCENCE - PERCENT POSITIVE 3 HR ([2]; 5 mg/ml coating): 0%
FLUORESCENCE - PERCENT POSITIVE 4 HR ([2]; 5 mg/ml coating): 23.1%
FLUORESCENCE - PERCENT POSITIVE 5 HR ([2]; 5 mg/ml coating): 23.1%
FLUORESCENCE - PERCENT POSITIVE 6 HR ([2]; 5 mg/ml coating): 30.8%
FLUORESCENCE - PERCENT POSITIVE 1 HR ([2]; 10 mg/ml coating): 0%
FLUORESCENCE - PERCENT POSITIVE 2 HR ([2]; 10 mg/ml coating): 0%
FLUORESCENCE - PERCENT POSITIVE 3 HR ([2]; 10 mg/ml coating): 7.7%
FLUORESCENCE - PERCENT POSITIVE 4 HR ([2]; 10 mg/ml coating): 23.1%
FLUORESCENCE - PERCENT POSITIVE 5 HR ([2]; 10 mg/ml coating): 23.1%
FLUORESCENCE - PERCENT POSITIVE 6 HR ([2]; 10 mg/ml coating): 30.8%
FLUORESCENCE - PERCENT POSITIVE 1 HR ([2]; 20 mg/ml coating): 0%
FLUORESCENCE - PERCENT POSITIVE 2 HR ([2]; 20 mg/ml coating): 0%
FLUORESCENCE - PERCENT POSITIVE 3 HR ([2]; 20 mg/ml coating): 9.1%
FLUORESCENCE - PERCENT POSITIVE 4 HR ([2]; 20 mg/ml coating): 18.2%
FLUORESCENCE - PERCENT POSITIVE 5 HR ([2]; 20 mg/ml coating): 45.5%
FLUORESCENCE - PERCENT POSITIVE 6 HR ([2]; 20 mg/ml coating): 63.6%
FLUORESCENCE - PERCENT POSITIVE 1 HR ([2]; 40 mg/ml coating): 0%
FLUORESCENCE - PERCENT POSITIVE 2 HR ([2]; 40 mg/ml coating): 0%
FLUORESCENCE - PERCENT POSITIVE 3 HR ([2]; 40 mg/ml coating): 7.7%
FLUORESCENCE - PERCENT POSITIVE 4 HR ([2]; 40 mg/ml coating): 42.3%
FLUORESCENCE - PERCENT POSITIVE 5 HR ([2]; 40 mg/ml coating): 46.2%
FLUORESCENCE - PERCENT POSITIVE 6 HR ([2]; 40 mg/ml coating): 53.8%
FLUORESCENCE - PERCENT POSITIVE 1 HR ([2]; 80 mg/ml coating): 0%
FLUORESCENCE - PERCENT POSITIVE 2 HR ([2]; 80 mg/ml coating): 12.0%
FLUORESCENCE - PERCENT POSITIVE 3 HR ([2]; 80 mg/ml coating): 36.0%
FLUORESCENCE - PERCENT POSITIVE 4 HR ([2]; 80 mg/ml coating): 64.0%
FLUORESCENCE - PERCENT POSITIVE 5 HR ([2]; 80 mg/ml coating): 72.0%
FLUORESCENCE - PERCENT POSITIVE 6 HR ([2]; 80 mg/ml coating): 76.0%
FLUORESCENCE - PERCENT POSITIVE 1 HR ([2]; 100 mg/ml coating): 0%
FLUORESCENCE - PERCENT POSITIVE 2 HR ([2]; 100 mg/ml coating): 6.9%
FLUORESCENCE - PERCENT POSITIVE 3 HR ([2]; 100 mg/ml coating): 48.3%
FLUORESCENCE - PERCENT POSITIVE 4 HR ([2]; 100 mg/ml coating): 69.0%
FLUORESCENCE - PERCENT POSITIVE 5 HR ([2]; 100 mg/ml coating): 79.3%
FLUORESCENCE - PERCENT POSITIVE 6 HR ([2]; 100 mg/ml coating): 89.7%
SMILES: OCC(O)COCC(O)COCC(O)COCC(O)COCC(O)COCC(O)COCC(O)COCC(O)COCC(O)COCC(O)CO (stereo not drawn) [Decaglycerol]
NO. GROWTH POSITIVE 168 HR ([1]; 5 mg/ml coating): 13
NO. GROWTH POSITIVE 168 HR ([1]; 10 mg/ml coating): 13
NO. GROWTH POSITIVE 168 HR ([1]; 20 mg/ml coating): 11
NO. GROWTH POSITIVE 168 HR ([1]; 40 mg/ml coating): 26
NO. GROWTH POSITIVE 168 HR ([1]; 80 mg/ml coating): 25
NO. GROWTH POSITIVE 168 HR ([1]; 100 mg/ml coating): 29
